# Test results as given in paper PMC2920546, “Preclinical Pharmacology of BA-TPQ, a Novel Synthetic Iminoquinone Anticancer Agent” (Marine Drugs, 2010).
# Key:
# [1] = Stability of BA-TPQ in mouse plasma; type: in vitro ADME; conditions: for Amount Remaining: mouse plasma
# Protocol: The stability of BA-TPQ was evaluated at two concentrations (0.5 and 5.0 μM). The compound was incubated under the following conditions: 37 °C for 0, 1, 2, 4, and 8 h; 4 °C for 0, 1, 4, 8, and 24 h; and −80 °C for 0, 1, 2, and 4 weeks. At the designated time points, the samples were extracted and analyzed using the established HPLC analytical method. The stability of the iminoquinone was assessed by comparing the initial concentration (time 0) with the final concentration following incubation of the compound at the noted temperatures, and expressing this difference as a percentage of the initial concentration.
# [2] = Binding to mouse plasma proteins (micro-ultrafiltration); type: in vitro ADME; conditions: non-Swiss albino, pooled mouse plasma
# Protocol: The extent of binding to mouse plasma proteins by BA-TPQ was determined using a micro-ultrafiltration system as previously described. BA-TPQ was dissolved in methanol and added to pooled mouse plasma to yield final concentrations of 0.5 μM and 5.0 μM. Control solutions were prepared in methanol to account for non-specific binding of BA-TPQ to the filter membranes. Duplicate preparations of each concentration were incubated at 37 °C for 1 h, before being placed into the sample reservoirs of Amicon Centrifree® ultrafiltration tubes (30 kDa exclusion; Millipore Corporation, Bedford, MA, USA). The filter systems were then centrifuged at 3000 g (37 °C) for 30 min or until no solution remained in the reservoir. Aliquots were taken from each filtrate and analyzed using the validated HPLC method. The concentrations of the unfiltered plasma and control preparations were also determined using the same protocol and expressed as the “total drug” (T) present, while the amounts of BA-TPQ present in the filtrates were designated as “free drug” (F). The percentage of BA-TPQ bound to plasma proteins was calculated as follows:
# (1) Percent Bound=[(T-F)/T]×100
# [3] = Pharmacokinetics, excretion and strain comparison stated for CD-1 and nude mice together; type: in vivo
# Protocol: Female ICR/CD-1 (18–20 g) mice were purchased from Harlan Laboratories (Indianapolis, IN), and female nude mice (nu/nu; 4–6 weeks) were purchased from Frederick Cancer Research and Development Center (Frederick, MD). All animal use and care procedures were approved by the Institutional Animal Care and Use Committee (IACUC) of the University of Alabama at Birmingham. All animals were fed with commercial diet and water ad libitum and were on an alternating 12 h light/dark cycle.
# CD-1 and nude mice were randomly divided into groups of three, and were dosed either intravenously (5 mg/kg) or intraperitoneally (10 mg/kg) with BA-TPQ in PEG 400:ethanol:0.9% saline (57.1%:14.3%:28.6%). Before dosing, and at 5, 15, 30, 60 min, and 2, 4, 8, and 24 h after dosing, groups of animals (three/time point) were anesthetized, and blood was collected from the retro-orbital sinus into heparinized tubes. Plasma was obtained by centrifuging the blood samples at 14,000 rpm for 15 min. BA-TPQ was then extracted from plasma and stored at −80 °C. The brain, heart, kidneys, liver, lungs, and spleen were also collected at the same time points during necropsy, blotted on Whatman No. 1 filter paper, trimmed of extraneous fat and connective tissue, weighed, and homogenized in phosphate-buffered saline. The resulting homogenates were stored at −80 °C until further processing and analysis. Urine and feces were collected for 24 hr from mice housed in metabolic cages. After collection, the cages were also washed twice with 200 μL PBS, and the washes were collected and analyzed separately. The total urine was determined as the amount from the urine plus washes 1 and 2. Feces were homogenized in PBS, then extracted using the same procedure used for tissues.
# Six hundred microliters of acetonitrile was added to 200 μL of plasma, urine, cage washes (first and second), or tissue/feces homogenate in an Eppendorf tube to precipitate proteins. After centrifugation at 14,000 rpm for 10 min, the supernatant was transferred to a glass tube and evaporated to dryness using a TurboVap® LV Concentration Workstation (Caliper Lifesciences, Hopkinton, MA). The residue was reconstituted with 500 μL ethyl acetate, sonicated for 10 min, and vortexed for 10 sec. Samples were then centrifuged again and the resulting supernatant was transferred to a new glass tube and evaporated to dryness. Finally, samples were reconstituted in 100 μL mobile phase, and 50 μL was injected into the HPLC system for analysis.
# The averages of the BA-TPQ concentration in plasma and tissues following intravenous and intraperitoneal administration to three animals per time point were used for pharmacokinetic analyses using a two-compartmental model and a non-compartment model, respectively. The following pharmacokinetic parameters were estimated using Phoenix WinNonlin 6.0 (Mountain View, CA): area under the concentration-time curve (AUC, h·μg/mL), half-life (T½, h), maximum concentration (Cmax, μg/mL), time of the maximum concentration (Tmax, h), and clearance (CL, mL/h/kg), as applicable. Bioavailability (X) was calculated as X= [AUCip × doseiv]/[AUCiv × doseip].
# [4] = test system: breast and prostate xenograft tumors; conditions: cited from earlier work
# [5] = IV 5 mg/kg, both strains, 24 hr collection
compound,measurement,setting,value
"O=C1C(NCc2ccccc2)=CC2=NCCc3c[nH]c1c32 [BA-TPQ, 7-(benzylamino)-1,3,4,8-tetrahydropyrrolo[4,3,2-de]quinolin-8(1H)-one]",Stability in mouse plasma (in words),"[1]; 37 °C, 4 °C and −80 °C, 0.5 μM and 5.0 μM",very stable
same,Amount Remaining,"[1]; 4 °C, 24 hr, 0.5 μM",94%
same,Amount Remaining,"[1]; 4 °C, 24 hr, 5.0 μM",117%
same,Amount Remaining,"[1]; 37 °C, 8 hr, 0.5 μM",92%
same,Amount Remaining,"[1]; 37 °C, 8 hr, 5.0 μM",114%
same,Amount Remaining,"[1]; −80 °C, 4 weeks, 0.5 μM",95%
same,Amount Remaining,"[1]; −80 °C, 4 weeks, 5.0 μM",100%
same,fraction unbound at 1 h,"[2]; mouse, read-out: Bound to plasma proteins (overall) (converted)",~0.3
same,"fraction unbound at 1 h, 0.5 μM","[2]; mouse plasma, 0.5 μM, read-out: Bound to plasma proteins (converted)",0.37
same,"fraction unbound at 1 h, 5 μM","[2]; mouse plasma, 5.0 μM, read-out: Bound to plasma proteins (converted)",0.26
same,Amount excreted in the feces,[3]; IP 10 mg/kg,less than 1%
same,Amount excreted in the urine,"[3]; IP 10 mg/kg, first 24 h after dosing",less than 0.02 % of the administered dose
same,"AUC in the brain, nude mice versus CD-1 mice",[3]; IP injection,~ 5 fold
same,"Accumulation in the liver, nude mice versus CD-1 mice",[3]; IP injection,~ 18 fold
same,Detectability in the lungs at 24 h,"[3]; IV 5 mg/kg, both CD-1 and nude mice",still detectable
same,Amount excreted in feces,[3]; [5],less than 1 % of the administered dose
same,Amount excreted in the urine,[3]; [5],less than 0.1 % of the administered dose
same,Detectability in plasma,"[3]; IV 5 mg/kg, either strain of mice",no longer detectable in plasma after 2 h
same,"Exposure of the heart (AUC), nude mice versus CD-1 mice",[3]; IV injection,approximately 6 fold
same,bioavailability,"[3]; female, CD-1 and nude (nu/nu), mouse, plasma, ip, 10 mg/kg, mice, IP injection, read-out: Intraperitoneal bioavailability (authors' overall estimate)",~70%
same,Blood-brain barrier passage (AUC in brain comparable to plasma),[3]; mice,can cross the blood-brain barrier
same,Intraperitoneal bioavailability (authors' overall estimate),"[3]; mice, IP injection",> 70%
same,Death in mice on repeated dosing,"[4]; 10 mg/kg, three times per week for up to six weeks",does not cause death
same,Toxicity in mice (weight loss),"[4]; especially at 10 mg/kg, 3 days/week for several weeks",systemic toxicity
same,Tumor growth in mouse xenograft models,[4]; prostate and breast cancer xenografts,inhibit tumor growth
